The values below come from US10590137B2, “Mercaptopurine hemihydrate” (THE REGENTS OF THE UNIVERSITY OF MICHIGAN, priority 2016, dated 2020).

One series relates to some cancer lines. The following applies: cited from earlier work.
Series [1] in a line: pharmacokinetic studies in rats (oral suspension vs IV). Type of series: in vivo, Male Sprague-Dawley rats. The settings on record: rat; for Cmax / AUC: plasma; for Cmax / AUC / Tmax: 30 mg/kg, oral gavage 30 mg/kg suspension; for % F (bioavailability): oral 30 mg/kg vs IV 15 mg/kg monohydrate. As for the experimental part: The bioavailability of the three forms was determined by comparison of suspension and intravenous administration in order to quantify the effect. […] Since the Tmax of the hemihydrate was much higher than the other two forms, it seems more compound was able to be absorbed overall even though over a somewhat longer time period, whereas the monohydrate and anhydrate were limited due to the solubility of the monohydrate form (FIG. 3).
Pharmacokinetic studies in rats were performed at Avastus Preclinical Services, Cambridge, Mass. All procedures were performed in accordance with the Guide for Care and Use of Laboratory Animals and were approved by the Avastus Institutional Animal Care and Use Committee. Male Sprague-Dawley rats weighing 200-300 g were dosed with mercaptopurine via oral gavage with a dosing volume of 5 mL/kg and a dose of 30 mg mercaptopurine form/kg or via IV administration at a dosing volume of 5 mL/kg and a dose of 15 mg mercaptopurine monohydrate/kg. Each group consisted of three rats, with one oral administration group for each form of mercaptopurine, and one IV administration group using the monohydrate form for reference. Blood samples were collected at time points of 15, 30, 60, 120, 240 minutes as well as 8 and 24 hours post dose. An additional time point at 5 minutes was taken for the IV administration group. Samples were centrifuged and the decanted plasma samples were stored at −80° C. until analysis.
The plasma samples were analyzed via LC-MS/MS using an Agilent 6410 mass spectrometer coupled with an Agilent 1200 HPLC and a CTC PAL chilled autosampler, all controlled by MassHunter software (Agilent). All plasma samples were crashed with three volumes of methanol containing an […] and centrifuged to remove precipitated protein before analysis. Samples were compared to a calibration curve prepared in rat blank plasma. Separation was performed on a C18 reverse phase HPLC column (Kinetex PFP, 2.6 μm, 2.1×50 mm) using an acetonitrile-water gradient system and peaks were analyzed by MS using ESI ionization in MRM mode. Peak area ratio to internal standard is used to interpolate plasma concentration for each sample from the calibration curve of peak area internal standard ratio to concentration. Pharmacokinetic parameters were fit using a custom WinNonlin analysis with PO dosing analysis. Area under the curve (AUC) for mercaptopurine was also calculated using the custom WinNonlin analysis. Cmax (maximum plasma concentration) and Tmax (time to reach maximum plasma concentration) were determined by visual inspection of the experimental data. The bioavailability (% F) was calculated from the following equation:
[formula] Frel was calculated with respect to the monohydrate form.

Series [2] can be described thus: thermally-induced phase transitions by DSC and variable temperature PXRD. Type of series: physicochemical. The following applies: for loss of crystallinity corresponding with a loss of water: variable temperature PXRD, conversion to anhydrate. Here is the method: DSC analysis and variable temperature PXRD were used to analyse the thermally-induced phase transitions of the compounds.
Variable temperature PXRD data were collected on a Rigaku SmartLab diffractometer using Cu-Kα radiation (λ=1.54187 Å) and operating at 40 kV and 44 mA. Samples were placed on a glass cover slip on top of a copper block that was heated at 2° C./min using a J-KEM Model 210 temperature controller. The setup was covered with a housing of Kapton to keep heat in but allow X-rays to penetrate. The spectrum was collected by scanning […] from 20 to 29° with a step size of 0.01° and a step speed of 0.1 seconds. Powder patterns were processed using Jade 8 XRD Pattern Processing, Identification & Quantification analysis software.^1
Thermograms of the monohydrate and hemihydrate forms were recorded on a TA Instruments Q20 DSC. […] Calibration of the instrument was performed using an indium standard. Thermograms were analyzed using TA Universal Analysis 2000, V 4.5A.
(In general: Differential scanning calorimetry records heat flow against a reference as temperature is scanned.)

The conditions of series [3]: at 37° C.; background statement; cited from earlier work.
The nature of a further series: physchem. The settings on record: water, 37 °C, thermodynamic from solid.
Series [4] is described as follows: stability to hydration: slurry conversion monitored by non-contact Raman probe. Type of series: physicochemical. The following applies: aqueous slurry; for time to convert to the monohydrate form: full conversion. Here is the method: In order to determine the stability to hydration, slurries of the anhydrate and hemihydrate forms were monitored using a non-contact Raman probe.
Raman spectra during slurry conversion were collected using a Kaiser Optical Systems Raman Rxn Microprobe equipped with a Multi-Rxn non-contact optic, 785 nm laser, and a multi-channel CCD detector. Spectra were collected with a range of 150-3425 cm^−1 and then analyzed using the HoloGRAMS 4.1 software package (Kaiser). Calibration was performed using a HoloLab Calibration Accessory and a cyclohexane standard.

Series [5] in a line: maximum solubility in water by turbidity measurements (CrystalBreeder). The settings on record: at 37° C., Van't Hoff.
Description: (§1) Solubility measurements were taken using a CrystalBreeder system (Technobis). Known amounts of solid compound and water were added to 0.3 mL clear round bottom vials equipped with a stir bar. The vials were sealed with a Teflon coated rubber crimped caps to prevent evaporation of solvent. Vials were loaded into one of the independently heated aluminum reactor blocks and turbidity measurements were taken using an LED light source and detector to measure particles in solution. Samples were heated to 85° C. at a rate of 0.2° C./min, held at 85° C. for 30 minutes, and then cooled to 0° C. at a rate of 0.2° C./min. Clear points were calculated based on the temperature at which 100% transmittance of solution was reached. Van't Hoff plots of concentration vs. time were produced from the data using CrystalClear software (Technobis) to determine the solubility of each form at different temperatures.

Read-outs that look alike come from different tables or passages of the source.

Description for physchem: as §1

The term IC50 denotes the concentration that gives 50% inhibition. For `S=c1[nH]cnc2nc[nH]c12` [Mercaptopurine], in the series with some cancer lines, the IC50 was 500 nM.

Broadly, the Cmax is the highest concentration seen after dosing. A word on the AUC: it is the area under the concentration-time curve, a measure of exposure. Lower therefore signals low exposure. By Tmax is commonly meant the time at which the peak concentration occurs. One may read the solubility as how much of the substance goes into solution per volume. Low readings indicate little dissolved substance, high ones much dissolved substance. Regarding `Sc1ncnc2nc[nH]c12` [Monohydrate, mercaptopurine monohydrate], in series [1] (male, Sprague-Dawley, po, read-out: Cmax), the Cmax stood at 230 ± 50 ng/mL. Further, in series [1] (monohydrate), the “% F (bioavailability)” value came out at 1.4%, the AUC was 210 ± 60 ng·h/mL and the Tmax was determined as 49.8 ± 17.4 min. Moreover, the “Tmax of merged endothermic event (water loss and loss of crystallinity)” value in series [2] (open DSC pan) is 177 °C. Moreover, in series [2] (sealed DSC pan), the “loss of crystallinity event” value was about 190 °C and the water loss event was about 140 °C. In addition, in series [2] (monohydrate), the “loss of crystallinity corresponding with a loss of water” value is about 160 °C. For the same compound, the water solubility in series [3] is 249 µg/mL. This compound also had a solubility in the series “physchem” of 249 µg/mL.

Consider `Sc1ncnc2nc[nH]c12` [Anhydrate, mercaptopurine], for which, in series [1], the “% F (bioavailability)” value stood at 2.9%, the AUC was determined as 430 ± 30 ng·h/mL, the Cmax was 260 ± 10 ng/mL and the Tmax came out at 49.8 ± 17.4 min. Besides, the “time to convert to the monohydrate form” value in series [4] lay within 2 to 5 h. The “average solubility in water” value in series [5] came out at 400 µg/mL.

Turning to `Sc1ncnc2nc[nH]c12` [Hemihydrate, mercaptopurine hemihydrate], in series [1] (hemihydrate), the “% F (bioavailability)” value stood at 3.8%, the AUC was 570 ± 120 ng·h/mL, the maximum concentration (Cmax) is 280 ± 110 ng/mL and the Tmax was 100 ± 34.8 min. Moreover, in series [4] (hemihydrate), the “time to convert to the monohydrate form” value is “approximately 70 hours”. The “time at which conversion to the monohydrate begins” value in series [4] (onset) was “approximately 5 hours”. Also, in series [2] (DSC / variable temperature PXRD), the “dehydration temperature (water loss, endothermic event)” value was 240 °C. In series [2] (hemihydrate), the “loss of crystallinity corresponding with a loss of water” value is reported as “does not show any loss of crystallinity”. Further, the “average solubility in water” value in series [5] (hemihydrate) was determined as 390 µg/mL.
